The source of these data is patent US20250388604A1, “Compounds and Their Use as PDE4 Activators” (Mironid Limited, priority 2022, published 2025).

The first test has as its system m-IMCD3 cells. Briefly: Inhibition of PGE2-stimulated in vitro cyst formation in m-IMCD3 cells. The test is classed as cell-based, mouse. Particulars: Mus musculus, mIMCD3, 144 h, 3 μM; mean cyst area, 100% for (DMSO + PGE2) and 0% for DMSO control; 6 days of culture; read-out: % Cyst area after incubation with 3 μM test compound. As for the experimental part: HEK 293 and MDCK cells (Public Health England, Cell Culture Collections) were maintained in Dulbecco's Modified Eagle's Medium (DMEM) supplemented with 10% (v/v) fetal bovine serum (FBS) (Seralab), 2 mM L-glutamine and 100 U/mL penicillin streptomycin cocktail (ThermoFisher); termed complete media. Clonal HEK 293 cell lines were maintained in complete media supplemented with 0.6 mg/ml G418 (Enzo Life Sciences). Mouse inner medullary collecting duct (m-IMCD3) cells [American Type Culture Collection (ATCC)] were maintained in media consisting of DMEM/Hams F-12 50/50 Mix (DMEM F12; Corning) supplemented with penicillin streptomycin cocktail (100 U/mL) and FBS (10% v/v) (DMEM F12-10% FBS).
The mouse Inner Medullary Collecting Duct cell line (m-IMCD3) spontaneously forms cystic spheroids in 3D culture with a Type 1 collagen/Matrigel extracellular matrix. This process can be stimulated with agents which raise intracellular cAMP and is used as an in vitro model for the formation of cystic structures in the kidneys of patients with ADPKD.
Rat Collagen I (Fisher Scientific) is prepared on ice by neutralising with 1M NaOH and diluting with a 2× volume of DMEM/F12+10% FBS. This is mixed 1:1.1 with ice cold Matrigel (Corning) for coating plates (coating mix), and 1:0.93 with Matrigel for cell plating (plating mix).
The assay is conducted in the wells of a 96-well plate culture dish using a total volume of 130 μL of collagen/Matrigel/DMEM F12-10% FBS suspension in growth media for each matrix plug per individual well. Initially, 30 μL of collagen/Matrigel/DMEM F12-10% FBS (coating mix) is added into the well of a 96 well plate and the collagen is set to a gel by incubating at 37° C. for at least 15 minutes. A second layer of 100 μL collagen/Matrigel suspension (plating mix) containing m-IMCD3 cells (2.75×10^6 m-IMCD3 cells per 96-well plate) is layered over the coating mix and the collagen/Matrigel/cell mix again set to a gel by incubating at 37° C. Cell cultures are maintained at 37° C. in an atmosphere of 5% CO2, 95% air.
Between 18 and 24 h after plating, test compound(s) as DMSO stock solutions [0.1% (v/v) final DMSO concentration] and PGE2 (100 nM final concentration) in DMEM F12-10% FBS are added in quadruplicate wells per condition. Media, together with the test compound and PGE2 are replenished after 2 or 3 days. After 6 days of culture z stack images of the wells are captured using the Nikon Eclipse Ti2-E microscope. Nikon General Analysis software is used to measure the following parameters in each well: the mean cyst area, the number of cysts, and the total cyst area.
PDE4 long form activators inhibited in vitro cyst formation in m-IMCD3 cells. Data are shown in Table 4 as mean cyst area (%), compared to 100% for (DMSO+PGE2) and 0% for DMSO control.
On to `Cc1cc(F)ccc1C(=O)N1CCc2nc(N3C4CCC3CNC4)sc2C1` [Example 216, (2-(3,8-diazabicyclo[3.2.1]octan-8-yl)-6,7-dihydrothiazolo[5,4-c]pyridin-5(4H)-yl)(4-fluoro-2-methylphenyl)methanone], for which the activity at 3 µM is -3%.

As to `O=C(c1cc2ccccc2[nH]1)N1CCc2nc(N3C4CCC3CNC4)sc2C1` [Example 188, (2-(3,8-diazabicyclo[3.2.1]octan-8-yl)-6,7-dihydrothiazolo[5,4-c]pyridin-5(4H)-yl)(1H-indol-2-yl)methanone], the activity at 3 µM stood at 3%.

As to `O=C(C1Cc2ccccc2O1)N1CCc2nc(N3C4CCC3CNC4)sc2C1` (centres unmarked) [Example 179, (2-(3,8-diazabicyclo[3.2.1]octan-8-yl)-6,7-dihydrothiazolo[5,4-c]pyridin-5(4H)-yl)(2,3-dihydrobenzofuran-2-yl)methanone], the activity at 3 µM was determined as 2%.

For the compound `COc1ccccc1C(=O)N1CCc2nc(N3C4CCC3CNC4)sc2C1` [Example 197, (2-(3,8-diazabicyclo[3.2.1]octan-8-yl)-6,7-dihydrothiazolo[5,4-c]pyridin-5(4H)-yl)(2-methoxyphenyl)methanone], the activity at 3 µM worked out at 4%.

Consider `O=C(c1cccc2c1CCO2)N1CCc2nc(N3C4CCC3CNC4)sc2C1` [Example 236, (2-(3,8-diazabicyclo[3.2.1]octan-8-yl)-6,7-dihydrothiazolo[5,4-c]pyridin-5(4H)-yl)(2,3-dihydrobenzofuran-4-yl)methanone], for which the activity at 3 µM was 27%.

Regarding `O=C([C@H](O)C1CCCCC1)N1CCc2nc(N3C4CCC3CNC4)sc2C1` [Example 177, (2R)-1-(2-(3,8-diazabicyclo[3.2.1]octan-8-yl)-6,7-dihydrothiazolo[5,4-c]pyridin-5(4H)-yl)-2-cyclohexyl-2-hydroxyethan-1-one], the activity at 3 µM is -2%.

For the compound `Cc1ccc(C(=O)N2CCc3nc(N4C5CCC4CNC5)sc3C2)cc1` [Example 196, (2-(3,8-diazabicyclo[3.2.1]octan-8-yl)-6,7-dihydrothiazolo[5,4-c]pyridin-5(4H)-yl)(p-tolyl)methanone], the activity at 3 µM was -1%.

Consider `O=C(c1ccc(OC(F)(F)F)cc1)N1CCc2nc(N3C4CCC3CNC4)sc2C1` [Example 208, (2-(3,8-diazabicyclo[3.2.1]octan-8-yl)-6,7-dihydrothiazolo[5,4-c]pyridin-5(4H)-yl)(4-(trifluoromethoxy)phenyl)methanone], for which the activity at 3 µM was determined as 8%.

With `O=C(C1Cc2ccccc2CO1)N1CCc2nc(N3C4CCC3CNC4)sc2C1` (centres unmarked) [Example 183, (2-(3,8-diazabicyclo[3.2.1]octan-8-yl)-6,7-dihydrothiazolo[5,4-c]pyridin-5(4H)-yl)(isochroman-3-yl)methanone], the activity at 3 µM was 0%.

`O=C(Oc1ccccc1)N1CCc2nc(N3C4CCC3CNC4)sc2C1` [Example 247, phenyl 2-(3,8-diazabicyclo[3.2.1]octan-8-yl)-6,7-dihydrothiazolo[5,4-c]pyridine-5(4H)-carboxylate]: the activity at 3 µM was determined as 18%.

Take `Cc1cncc(-c2nc3c(s2)CN(C(=O)CC2CCCC2)CC3)c1` [Example 306, 2-cyclopentyl-1-(2-(5-methylpyridin-3-yl)-6,7-dihydrothiazolo[5,4-c]pyridin-5(4H)-yl)ethan-1-one]: the activity at 3 µM is -3%.

For the compound `O=C(c1cccc2c1OCCC2)N1CCc2nc(N3C4CCC3CNC4)sc2C1` [Example 217, (2-(3,8-diazabicyclo[3.2.1]octan-8-yl)-6,7-dihydrothiazolo[5,4-c]pyridin-5(4H)-yl)(chroman-8-yl)methanone], the activity at 3 µM is -3%.

As to `O=S(=O)(Cc1ccc(F)cc1)N1CCc2nc(N3CCNCC3)sc2C1` [Example 287, 5-((4-fluorobenzyl)sulfonyl)-2-(piperazin-1-yl)-4,5,6,7-tetrahydrothiazolo[5,4-c]pyridine], the activity at 3 µM was -3%.

With `CC(C)C(O)C(=O)N1Cc2sc(N3C4CCC3CNC4)nc2C(C)(C)C1` (centres unmarked) [Example 259, 1-(2-(3,8-diazabicyclo[3.2.1]octan-8-yl)-7,7-dimethyl-6,7-dihydrothiazolo[5,4-c]pyridin-5(4H)-yl)-2-hydroxy-3-methylbutan-1-one], the activity at 3 µM was -6%.

For `O=C(c1ccc(F)cc1F)N1CCc2nc(N3C4CCC3CNC4)sc2C1` [Example 212, (2-(3,8-diazabicyclo[3.2.1]octan-8-yl)-6,7-dihydrothiazolo[5,4-c]pyridin-5(4H)-yl)(2,4-difluorophenyl)methanone], the activity at 3 µM is 0%.

Regarding `COc1nc(F)ccc1C(=O)N1CCc2nc(N3C4CCC3CNC4)sc2C1` [Example 240, (2-(3,8-diazabicyclo[3.2.1]octan-8-yl)-6,7-dihydrothiazolo[5,4-c]pyridin-5(4H)-yl)(6-fluoro-2-methoxypyridin-3-yl)methanone], the activity at 3 µM is -3%.

Take `O=C(c1ccc(Cl)nc1)N1CCc2nc(N3C4CCC3CNC4)sc2C1` [Example 221, (2-(3,8-diazabicyclo[3.2.1]octan-8-yl)-6,7-dihydrothiazolo[5,4-c]pyridin-5(4H)-yl)(6-chloropyridin-3-yl)methanone]: the activity at 3 µM amounted to 0%.

Staying with this test, now noted: Mus musculus, mIMCD3, 144 h, 10 μM; mean cyst area, 100% for (DMSO + PGE2) and 0% for DMSO control; 6 days of culture; read-out: % Cyst area after incubation with 10 μM test compound.
Regarding `CN1CC2CCC(C1)N2c1nc2c(s1)CN(C(=O)NC1CCCC1)C2` [Example 82, N-cyclopentyl-2-(3-methyl-3,8-diazabicyclo[3.2.1]octan-8-yl)-4,6-dihydro-5H-pyrrolo[3,4-d]thiazole-5-carboxamide], the activity at 10 µM is 2%.

Regarding `CC(C)(Oc1ccccc1)C(=O)N1CCc2nc(N3C4CCC3CNC4)sc2C1` [Example 30, 1-(2-(3,8-diazabicyclo[3.2.1]octan-8-yl)-6,7-dihydrothiazolo[5,4-c]pyridin-5(4H)-yl)-2-methyl-2-phenoxypropan-1-one], the activity at 10 µM turned out to be 1%.

Regarding `O=C(N1CCc2nc(N3C4CCC3CNC4)sc2C1)C(F)(F)C1CCCC1` [Example 24, 1-(2-(3,8-diazabicyclo[3.2.1]octan-8-yl)-6,7-dihydrothiazolo[5,4-c]pyridin-5(4H)-yl)-2-cyclopentyl-2,2-difluoroethan-1-one], the activity at 10 µM turned out to be 0%.

For `COC(C(=O)N1CCc2nc(N3C4CCC3CNC4)sc2C1)c1ccc(F)cc1` (centres unmarked) [Example 131, 1-(2-(3,8-diazabicyclo[3.2.1]octan-8-yl)-6,7-dihydrothiazolo[5,4-c]pyridin-5(4H)-yl)-2-(4-fluorophenyl)-2-methoxyethan-1-one], the activity at 10 µM is -9%.

As to `O=C(NCc1ccc(F)cc1)N1CCc2nc(N3C4CCC3CNC4)sc2C1` [Example 55, 2-(3,8-diazabicyclo[3.2.1]octan-8-yl)-N-(4-fluorobenzyl)-6,7-dihydrothiazolo[5,4-c]pyridine-5(4H)-carboxamide], the activity at 10 µM was 0%.

For `CN(C(=O)N1CCc2nc(N3C4CCC3CNC4)sc2C1)C1CCCC1` [Example 62, 2-(3,8-diazabicyclo[3.2.1]octan-8-yl)-N-cyclopentyl-N-methyl-6,7-dihydrothiazolo[5,4-c]pyridine-5(4H)-carboxamide], the activity at 10 µM was 1%.

As to `O=C(CC1CCCC1)N1CCc2nc(N3CCN[C@@H](CO)C3)sc2C1` [Example 117, (R)-2-cyclopentyl-1-(2-(3-(hydroxymethyl)piperazin-1-yl)-6,7-dihydrothiazolo[5,4-c]pyridin-5(4H)-yl)ethan-1-one], the activity at 10 µM came to 1%.

As for `O=C(COc1ccc(F)cc1F)N1CCc2nc(N3C4CCC3CNC4)sc2C1` [Example 148, 1-(2-(3,8-diazabicyclo[3.2.1]octan-8-yl)-6,7-dihydrothiazolo[5,4-c]pyridin-5(4H)-yl)-2-(2,4-difluorophenoxy)ethan-1-one], the activity at 10 µM was found to be 3%.

For `CC1(C)CCCC1C(=O)N1CCc2nc(N3C4CCC3CNC4)sc2C1` (centres unmarked) [Example 37, (2-(3,8-diazabicyclo[3.2.1]octan-8-yl)-6,7-dihydrothiazolo[5,4-c]pyridin-5(4H)-yl)(2,2-dimethylcyclopentyl)methanone], the activity at 10 µM is -2%.
